Consider 20 compounds from article PMC9000336, “Development of Bicyclo[3.1.0]hexane-Based A3 Receptor Ligands: Closing the Gaps in the Structure–Affinity Relationships” (Molecules, 2022).

The test addresses T1, human adenosine A3 receptor (Homo sapiens, UniProt P0DMS8).
T1 construct: expressed in transfected cells; host or cells: CHO cells (CHOhA3R), gift of Dr. K.-N. Klotz (University of Würzburg); membrane preparation
T1 sequence (P0DMS8 1-318): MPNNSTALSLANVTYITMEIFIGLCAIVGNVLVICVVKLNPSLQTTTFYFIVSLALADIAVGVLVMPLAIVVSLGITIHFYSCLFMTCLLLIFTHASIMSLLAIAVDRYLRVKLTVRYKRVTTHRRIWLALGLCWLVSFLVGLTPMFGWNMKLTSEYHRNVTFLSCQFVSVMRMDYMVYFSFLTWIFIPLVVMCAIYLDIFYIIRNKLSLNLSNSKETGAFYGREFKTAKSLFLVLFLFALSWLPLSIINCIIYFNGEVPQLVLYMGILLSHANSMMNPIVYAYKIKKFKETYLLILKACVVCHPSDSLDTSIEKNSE
The experiment in a line: Radioligand displacement assay, human adenosine A3 receptor ([3H]PSB11, CHOhA3R membranes). Format: binding. The following applies: for inhibition at 10 µM: test compound 10 µM; for inhibition at 10 µM / Ki / A3 displacement at 1 µM: n = 3; for A3 displacement at 1 µM: footnote a: test compound 1 µM. Here is the method: Chinese hamster ovary (CHO) cells stably expressing the human adenosine A1 receptor (CHOhA1R) were kindly provided by Prof. S. J. Hill and CHO cells stably expressing the human adenosine A3 receptor (CHOhA3R) were a gift from Dr. K.-N. Klotz (University of Würzburg, Germany). Chinese hamster ovary cells stably expressing the human A1-receptor (CHOhA1R) or the human A3-receptor (CHOhA3R) were grown in Dulbecco’s Modified Eagle’s Medium (DMEM) and Ham’s F12 medium (1:1) supplemented with 10% (v/v) newborn calf serum, 50 µg/mL streptomycin, 50 IU/mL penicillin, and 200 µg/mL G418 at 37 °C and 5% CO2. […] All cells were grown to 80–90% confluency and detached from plates by scraping them into 5 mL phosphate-buffered saline. Detached cells were collected and centrifuged at 200 g for 5 min. Pellets derived from 100 15 cm Ø plates were pooled and resuspended in 70 mL of ice-cold 50 mM tris(hydroxymethyl)aminomethane (Tris)-HCl buffer, pH 7.4. A Heidolph Diax 900 homogenizer was used to homogenize the cell suspension. Membranes and the cytosolic fraction were separated by centrifugation at 100,000 g in a Beckman Optima LE-80 K ultracentrifuge (Beckman Coulter, Fullerton, CA, USA) at 4 °C for 20 min. The pellet was resuspended in 35 mL of the Tris-HCl buffer, and the homogenization and centrifugation steps were repeated. Tris-HCl buffer (25 mL) was used to resuspend the pellet, and adenosine deaminase (ADA) was added (0.8 U/mL) to break down endogenous adenosine. Membranes were stored in 250 µL and 500 µL aliquots at −80 °C. Total protein concentrations were measured using the bicinchoninic acid (BCA) method.
A3 Receptor: Membrane aliquots containing 15 µg (CHOhA3R) total protein were incubated in a total volume of 100 µL assay buffer (50 mM Tris-HCl, pH 8.0, supplemented with 10 mM MgCl2, 1 mM EDTA and 0.01% (w/v) CHAPS) at 25 °C for 2 h. Radioligand displacement experiments were performed using six concentrations of competing ligand in the presence of 10 nM [^3H]8-ethyl-4-methyl-2-phenyl-(8R)-4,5,7,8-tetrahydro-1H-imidazo[2.1-i]purin-5-one ([^3H]PSB11). […] Nonspecific binding was determined in the presence of 100 µM NECA. Incubations were terminated by rapid vacuum filtration to separate the bound and free radioligand through prewetted 96-well GF/B filter plates using a PerkinElmer Filtermate-harvester (Perkin Elmer, Groningen, The Netherlands). Filters were subsequently washed 12 times with ice-cold 50 mM Tris-HCl supplemented with 10 mM MgCl2, and 1 mM EDTA, pH 8.0 for CHOhA3R.
The plates of all four adenosine receptor assays were dried at 55 °C after which MicroscintTM-20-cocktail was added (Perkin Elmer, Groningen, The Netherlands).
All experimental data were analyzed using the non-linear regression curve fitting program GraphPad Prism 7.0 (GraphPad Software Inc., San Diego, CA, USA). IC50 values obtained from competition displacement binding data were converted into Ki values using the Cheng–Prusoff equation.

The mark [1] stands for this setting: footnote a: tested at 1 µM, read-out: A3 Ki (bound, footnote a).
The mark [2] stands for this setting: [3H]PSB11, read-out: A3 Ki ± SEM.

Read-outs that look alike come from different tables or passages of the source.

With `CSc1cc(N)c2ncn([C@H]3[C@H](O)[C@H](O)[C@]4(CO)C[C@H]34)c2n1` [Compound 17, (1R,2R,3S,4R,5S)-4-(7-Amino-5-methylthio-3H-imidazo[4,5-b]pyridin-3-yl)-1-(hydroxymethyl)bicyclo[3.1.0]hexane-2,3-diol], testing at 10 µM gave an inhibition of 45%.

As to `CSc1nc(N(Cc2ccccc2)Cc2ccccc2)c2ncn([C@H]3[C@H](O)[C@H](O)[C@]4(CCl)C[C@H]34)c2n1` [Compound 31, (1S,2R,3S,4R,5S)-4-[6-(Dibenzylamino)-2-methylthio-9H-purin-9-yl]-1-(chloromethyl)bicyclo[3.1.0]hexane-2,3-diol], the “potency at the A3 receptor” value is on record as “not potent” and the inhibition at 10 µM is 26%.

As for `CSc1nc(N)c2ncn([C@H]3[C@H](O)[C@H](O)[C@]4(Cn5cc(C(=O)O)nn5)C[C@H]34)c2n1` [Compound 44, 1-{[(1R,2R,3S,4R,5S)-4-(6-Amino-2-methylthio-9H-purin-9-yl)-2,3-dihydroxybicyclo[3.1.0]hex-1-yl]methyl}-1H-1,2,3-triazole-4-carboxylic acid], under setting [1], the Ki is more than 1000 nM.

Take `Nc1ncnc2c1ncn2[C@H]1[C@H](O)[C@H](O)[C@]2(CO)C[C@H]12` [Compound 36, (N)-methanocarba adenosine]: the Ki under setting [2] came out at 960 ± 50 nM.

For `COC(=O)Cc1cn(C[C@@]23C[C@@H]2[C@@H](n2cnc4c(N)nc(SC)nc42)[C@H](O)[C@@H]3O)nn1` [Compound 41, Methyl 2-(1-{[(1R,2R,3S,4R,5S)-4-(6-amino-2-methylthio-9H-purin-9-yl)-2,3-dihydroxybicyclo[3.1.0]hex-1-yl]methyl}-1H-1,2,3-triazol-4-yl)acetate], the “A3 displacement at 1 µM” value was 3% ^a.

As for `Nc1cc(Cl)c2ncn([C@H]3[C@H](O)[C@H](O)[C@]4(CO)C[C@H]34)c2n1` [Compound 11, (1R,2R,3S,4R,5S)-4-(5-Amino-7-chloro-3H-imidazo[4,5-b]pyridin-3-yl)-1-(hydroxymethyl)bicyclo[3.1.0]hexane-2,3-diol], the inhibition at 10 µM was determined as 4%.

Consider `CSc1nc(N)c2ncn([C@H]3[C@H](O)[C@H](O)[C@]4(Cn5cc(CCC(=O)O)nn5)C[C@H]34)c2n1` [Compound 46], for which the Ki under setting [1] was more than 1000 nM.

With `CSc1nc(N(Cc2ccccc2)Cc2ccccc2)c2ncn([C@H]3[C@H](O)[C@H](O)[C@]4(CO)C[C@H]34)c2n1` [Compound 30, (1R,2R,3S,4R,5S)-4-[6-(Dibenzylamino)-2-methylthio-9H-purin-9-yl]-1-(hydroxymethyl)bicyclo[3.1.0]hexane-2,3-diol], the Ki under setting [2] is 380 ± 10 nM. Further, for the setting “versus other P1 receptor subtypes”, the “A3R selectivity” value is on record as “high A3R selectivity”.

Consider `CCN(CC)CC.CSc1nc(N)c2ncn([C@H]3[C@H](O)[C@H](O)[C@]4(CNS(=O)(=O)CC(=O)O)C[C@H]34)c2n1` [Compound 48, Triethylammonium 2-(N-{[(1R,2R,3S,4R,5S)-4-(6-amino-2-methylthio-9H-purin-9-yl)-2,3-dihydroxybicyclo[3.1.0]hex-1-yl]methyl}sulfamoyl)acetate], for which the “A3 displacement at 1 µM” value stood at 5% ^a.

Compound `COC(=O)c1cn(C[C@@]23C[C@@H]2[C@@H](n2cnc4c(N)nc(SC)nc42)[C@H](O)[C@@H]3O)nn1` [Compound 40, Methyl 1-{[(1R,2R,3S,4R,5S)-4-(6-amino-2-methylthio-9H-purin-9-yl)-2,3-dihydroxybicyclo[3.1.0]hex-1-yl]methyl}-1H-1,2,3-triazole-4-carboxylate] registered an inhibition at 10 µM of 8%.

On to `CSc1nc(N)c2ncn([C@H]3[C@H](O)[C@H](O)[C@]4(Cn5cc(CN)nn5)C[C@H]34)c2n1` [Compound 43, (1R,2R,3S,4R,5S)-4-(6-Amino-2-methylthio-9H-purin-9-yl)-1-{[4-(aminomethyl)-1H-1,2,3-triazol-1-yl]methyl}bicyclo[3.1.0]hexane-2,3-diol], for which the inhibition at 10 µM turned out to be 13%.

As to `CSc1nc(N)c2ncn([C@H]3[C@H](O)[C@H](O)[C@]4(Cn5cc(CC(=O)O)nn5)C[C@H]34)c2n1` [Compound 45, 2-(1-{[(1R,2R,3S,4R,5S)-4-(6-Amino-2-methylthio-9H-purin-9-yl)-2,3-dihydroxybicyclo[3.1.0]hex-1-yl]methyl}-1H-1,2,3-triazol-4-yl)acetic acid], the Ki under setting [1] was more than 1000 nM.

With `CSc1cc(NCc2ccccc2)c2ncn([C@H]3[C@H](O)[C@H](O)[C@]4(CO)C[C@H]34)c2n1` [Compound 14, (1R,2R,3S,4R,5S)-4-[7-(Benzylamino)-5-methylthio-3H-imidazo[4,5-b]pyridin-3-yl]-1-(hydroxymethyl)bicyclo[3.1.0]hexane-2,3-diol], under setting [2], the Ki was 1510 ± 30 nM.

Take `CCN(CC)CC.CSc1nc(N)c2ncn([C@H]3[C@H](O)[C@H](O)[C@]4(CNc5c(O)c(=O)c5=O)C[C@H]34)c2n1` [Compound 47, Triethylammonium 2-{[(1R,2R,3S,4R,5S)-4-(6-Amino-2-methylthio-9H-purin-9-yl)-2,3-dihydroxybicyclo[3.1.0]hex-1-yl]methyl}amino-3,4-dioxocyclobut-1-en-1-olate]: the “A3 displacement at 1 µM” value was 6% ^a.

In the case of `OC[C@@]12C[C@@H]1[C@@H](n1cnc3c(Cl)cc(Cl)nc31)[C@H](O)[C@@H]2O` [Compound 12, (1R,2R,3S,4R,5S)-4-(5,7-Dichloro-3H-imidazo[4,5-b]pyridin-3-yl)-1-(hydroxymethyl)bicyclo[3.1.0]hexane-2,3-diol], the Ki under setting [2] is more than 10000 nM.

Regarding `COc1ccc(CNc2cc(Cl)nc3c2ncn3[C@H]2[C@H](O)[C@H](O)[C@]3(CO)C[C@H]23)cc1` [Compound 15, (1R,2R,3S,4R,5S)-4-{5-Chloro-7-[(4-methoxy)benzylamino]-3H-imidazo[4,5-b]pyridin-3-yl}-1-(hydroxymethyl)bicyclo[3.1.0]hexane-2,3-diol], the Ki under setting [2] came to 500 ± 10 nM.

Turning to `OC[C@@]12C[C@@H]1[C@@H](n1cnc3c(NCc4ccccc4)cc(Cl)nc31)[C@H](O)[C@@H]2O` [Compound 13, (1R,2R,3S,4R,5S)-4-[7-(Benzylamino)-5-chloro-3H-imidazo[4,5-b]pyridin-3-yl]-1-(hydroxymethyl)bicyclo[3.1.0]hexane-2,3-diol], the Ki under setting [2] amounted to 460 ± 20 nM.

For `Nc1cc(Cl)nc2c1ncn2[C@H]1[C@H](O)[C@H](O)[C@]2(CO)C[C@H]12` [Compound 16, (1R,2R,3S,4R,5S)-4-(7-Amino-5-chloro-3H-imidazo[4,5-b]pyridin-3-yl)-1-(hydroxymethyl)bicyclo[3.1.0]hexane-2,3-diol], the Ki under setting [2] turned out to be 1600 ± 110 nM.

Turning to `OC[C@@]12C[C@@H]1[C@@H](n1cnc3c(N(Cc4ccccc4)Cc4ccccc4)ncnc31)[C@H](O)[C@@H]2O` [Compound 26, (1R,2R,3S,4R,5S)-4-[6-(Dibenzylamino)-9H-purin-9-yl]-1-(hydroxymethyl)bicyclo[3.1.0]hexane-2,3-diol], the “potency at the A3 receptor” value was “not potent” and at 10 µM the inhibition was 8%.

For the compound `OC[C@@]12C[C@@H]1[C@@H](n1cnc3c(N(Cc4ccccc4)Cc4ccccc4)nc(Cl)nc31)[C@H](O)[C@@H]2O` [Compound 27, (1R,2R,3S,4R,5S)-4-[6-(Dibenzylamino)-2-chloro-9H-purin-9-yl]-1-(hydroxymethyl)bicyclo[3.1.0]hexane-2,3-diol], the “potency at the A3 receptor” value is reported as “not potent” and at 10 µM the inhibition was 4%.
